Measurements from article PMC3386472 (Journal of Medicinal Chemistry, 2012).
“Also recorded” adds a separate entry of the source. Blank lines part the entries; values can stand above or below the molecule they belong to.

Columns and labels:
reserpine-treated rats = test: Reversal of reserpine-induced hypolocomotion in rats; conditions: 5 µmol/kg, sc; for P compared to reserpine control (Dunnett's analysis post one-way ANOVA): horizontal locomotor activity; for Reversal of reserpine-induced hypolocomotion (horizontal activity): reserpine 5 mg/kg sc 18 h before, monitored 6 h
human D2 receptor = human D2 receptor (Homo sapiens, UniProt P14416); test: Stimulation of [35S]GTPγS binding, cloned human D2 receptor in CHO cells; conditions: [35S]GTPγS functional assay, % Emax vs DA
human D3 receptor = human D3 receptor (Homo sapiens, UniProt P35462); test: Stimulation of [35S]GTPγS binding, cloned human D3 receptor in CHO cells
[1] = system: MPTP- and lactacystin-lesioned animal models; conditions: cited from earlier work

human D3 receptor, sequence (P35462 whole entry): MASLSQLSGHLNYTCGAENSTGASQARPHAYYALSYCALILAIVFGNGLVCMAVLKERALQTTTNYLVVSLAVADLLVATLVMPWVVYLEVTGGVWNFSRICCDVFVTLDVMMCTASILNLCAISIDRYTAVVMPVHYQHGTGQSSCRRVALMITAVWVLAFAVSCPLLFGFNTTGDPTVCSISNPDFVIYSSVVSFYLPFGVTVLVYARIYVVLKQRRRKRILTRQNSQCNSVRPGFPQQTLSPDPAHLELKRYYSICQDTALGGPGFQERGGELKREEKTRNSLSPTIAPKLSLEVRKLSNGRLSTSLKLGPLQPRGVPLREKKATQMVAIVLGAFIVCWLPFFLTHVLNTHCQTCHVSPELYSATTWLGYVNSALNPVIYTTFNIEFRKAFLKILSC
human D2 receptor, sequence (P14416 whole entry): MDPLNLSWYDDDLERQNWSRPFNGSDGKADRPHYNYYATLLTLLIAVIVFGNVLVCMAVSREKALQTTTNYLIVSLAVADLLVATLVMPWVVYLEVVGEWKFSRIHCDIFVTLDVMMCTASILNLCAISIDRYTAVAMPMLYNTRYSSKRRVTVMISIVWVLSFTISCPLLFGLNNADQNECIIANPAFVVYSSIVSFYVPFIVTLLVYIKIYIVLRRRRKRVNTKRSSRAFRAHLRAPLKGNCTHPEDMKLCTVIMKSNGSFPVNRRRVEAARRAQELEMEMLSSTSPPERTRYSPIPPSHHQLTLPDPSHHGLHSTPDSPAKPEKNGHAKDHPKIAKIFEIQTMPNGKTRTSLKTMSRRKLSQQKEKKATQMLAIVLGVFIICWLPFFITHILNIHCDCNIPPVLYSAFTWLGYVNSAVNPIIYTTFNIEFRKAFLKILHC

SMILES: CCCN(CCN1CCN(c2ccc3[nH]ccc3c2)CC1)[C@H]1CCc2nc(N)sc2C1 [Compound (−)-19, (S)-N^6-{2-[4-(1H-Indol-5-yl)piperazin-1-yl]ethyl}-N^6-propyl-4,5,6,7-tetrahydro benzothiazole-2,6-diamine]
P compared to reserpine control (Dunnett's analysis post one-way ANOVA) (reserpine-treated rats): < 0.01 | Reversal of reserpine-induced hypolocomotion (horizontal activity) (reserpine-treated rats): significantly reversing akinesia; also recorded: significant, long-lasting reversal of hypolocomotion

Agonist activity at D2 receptor (in words) (human D2 receptor): full agonist activity | Agonist activity at D3 receptor (in words) (human D3 receptor; [35S]GTPγS functional assay, % Emax vs DA): full agonist activity
SMILES: CCCN(CCN1CCN(C(=O)c2c[nH]c3ccccc23)CC1)[C@H]1CCc2nc(N)sc2C1 [Compound (−)-45, (S)-(4-{2-[(2-Amino-4,5,6,7-tetrahydrobenzothiazol-6-yl)propylamino]ethyl}piperazin-1-yl)-(1H-indol-3-yl)methanone]

SMILES: CCCN(CCN1CCN(c2ccc(-c3ccccc3)cc2)CC1)[C@H]1CCc2nc(N)sc2C1 [Compound D-264]
Neuroprotection in PD animal models ([1]; MPTP and lactacystin models): neuroprotective | Behavioral syndromes in PD mouse models ([1]; acute MPTP and progressive lactacystin mouse models): significantly improved behavioral syndromes

Emax (human D3 receptor; CHO, read-out: hCHO-D3 % Emax): 102 ± 2%
SMILES: CCCN(CCN1CCN(c2nccc3ccccc23)CC1)[C@H]1CCc2nc(N)sc2C1 [Compound D-301]

SMILES: CCCN(CCC)CCc1cccc2c1CC(=O)N2.Cl [ropinirole]
P compared to reserpine control (Dunnett's analysis post one-way ANOVA) (reserpine-treated rats): < 0.05 | Reversal of reserpine-induced hypolocomotion (horizontal activity) (reserpine-treated rats): significant locomotor activation
